These results are taken from patent US11998539B2, “Substituted aminoquinolones as DGKalpha inhibitors for immune activation” (Bayer Aktiengesellschaft, priority 2019, dated 2024).

The target of this test is DGKα (Homo sapiens (Human), UniProt P23743). The experiment in a line: Human DGKα kinase activity inhibition assay (ADP-Glo). The settings on record: recombinant full-length human DGKα, 55 μM ATP, 7 μM 1,2-dioleoyl-sn-glycerol, read-out: IC50 values of examples in in vitro human DGKa kinase activity inhibition assays. It counts as biochemical. Put shortly: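 Activity was measured as ADP production, detected by luciferase luminescence after removal of unused ATP. The enzyme was baculovirus-expressed full-length human DGKα with a C-terminal FLAG tag. The substrate was 1,2-dioleoyl-sn-glycerol in detergent micelles, and compounds came from 100× DMSO solutions.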
Chain of DGKα (P23743 other isoform, or with tags, fused parts or gaps): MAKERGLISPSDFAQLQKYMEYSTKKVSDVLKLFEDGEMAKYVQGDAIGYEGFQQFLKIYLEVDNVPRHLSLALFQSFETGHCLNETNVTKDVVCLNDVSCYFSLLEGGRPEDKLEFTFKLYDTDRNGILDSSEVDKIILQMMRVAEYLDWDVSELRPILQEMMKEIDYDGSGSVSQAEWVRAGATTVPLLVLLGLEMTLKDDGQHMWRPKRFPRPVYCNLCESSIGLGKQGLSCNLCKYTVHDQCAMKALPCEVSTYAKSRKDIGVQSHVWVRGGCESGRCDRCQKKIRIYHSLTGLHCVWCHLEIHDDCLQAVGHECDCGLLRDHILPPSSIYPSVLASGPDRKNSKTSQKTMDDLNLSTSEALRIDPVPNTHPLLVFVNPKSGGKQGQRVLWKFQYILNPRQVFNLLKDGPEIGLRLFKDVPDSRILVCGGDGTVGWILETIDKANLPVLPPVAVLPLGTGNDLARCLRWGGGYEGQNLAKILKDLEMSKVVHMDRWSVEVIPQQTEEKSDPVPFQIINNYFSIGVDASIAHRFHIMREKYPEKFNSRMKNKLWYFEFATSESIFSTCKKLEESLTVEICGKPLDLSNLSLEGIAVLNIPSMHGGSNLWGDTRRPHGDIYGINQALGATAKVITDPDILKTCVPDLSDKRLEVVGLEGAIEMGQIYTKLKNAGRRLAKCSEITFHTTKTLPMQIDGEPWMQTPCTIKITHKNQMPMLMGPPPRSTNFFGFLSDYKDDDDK
A general note: ADP-Glo turns the ADP formed in a reaction into a luminescent signal.
For `Cc1ccc2c(c1)c(N1CCC(c3nc4ccc(Cl)cc4o3)CC1)c(C(N)=O)c(=O)n2C` [Example 202, 4-[4-(6-chloro-1,3-benzoxazol-2-yl)piperidin-1-yl]-1,6-dimethyl-2-oxo-1,2-dihydroquinoline-3-carboxamide], the IC50 – broadly, the point on the concentration scale where inhibition reaches its midpoint – was 2.7 nM.
On to `Cc1cccc(-c2noc(C3CCN(c4c(C#N)c(=O)n(C)c5ccccc45)CC3)n2)c1` [Example 350, 1-methyl-4-{4-[3-(3-methylphenyl)-1,2,4-oxadiazol-5-yl]piperidin-1-yl}-2-oxo-1,2-dihydroquinoline-3-carbonitrile], for which the IC50 was found to be 11 nM.
Next, `Cc1ccc2oc(C3CCN(c4c(C#N)c(=O)n(C)c5cc(N(C)CCO)ccc45)CC3)nc2c1` [Example 399, 7-[(2-hydroxyethyl)(methyl)amino]-1-methyl-4-[4-(5-methyl-1,3-benzoxazol-2-yl)piperidin-1-yl]-2-oxo-1,2-dihydroquinoline-3-carbonitrile]: 0.5 nM.
With `Cn1c(=O)c(C#N)c(N2CCC(c3nc4ccccc4s3)CC2)c2cc(C3CC3)ccc21` [Example 276, 4-[4-(1,3-benzothiazol-2-yl)piperidin-1-yl]-6-cyclopropyl-1-methyl-2-oxo-1,2-dihydroquinoline-3-carbonitrile], the IC50 was determined as 216 nM.
As to `Cc1ccc2oc([C@H]3CCN(c4c(C#N)c(=O)n(C)c5ccccc45)[C@@H](C)C3)nc2c1` [Example 326, 1-methyl-4-[(2S,4S)-2-methyl-4-(5-methyl-1,3-benzoxazol-2-yl)-1-piperidyl]-2-oxo-quinoline-3-carbonitrile], the IC50 turned out to be 34 nM.
Next, `Cn1c(=O)c(C#N)c(N2CCC(c3nc4cc(N5CCCC5=O)ccc4o3)CC2)c2ccccc21` [Example 334, 1-methyl-2-oxo-4-{4-[5-(2-oxopyrrolidin-1-yl)-1,3-benzoxazol-2-yl]piperidin-1-yl}-1,2-dihydroquinoline-3-carbonitrile]: 100 nM; `Cc1ccc2c(c1)c(N1CCC(c3nc4ccc(Cl)cc4o3)CC1)c(C#N)c(=O)n2C` [Example 183, 4-[4-(6-chloro-1,3-benzoxazol-2-yl)piperidin-1-yl]-1,6-dimethyl-2-oxo-1,2-dihydroquinoline-3-carbonitrile]: 1.5 nM.
Next, “4-[4-(1,3-benzoxazol-5-yl)piperidin-1-y-1-methyl-2-oxo-1,2-dihydroquinoline-3-carbonitrile [Example 67]”: 85 nM.
In the case of `Cn1c(=O)c(C(N)=O)c(N2CCC(C)(c3nc4ccccc4o3)CC2)c2cc(F)ccc21` [Example 296, 4-[4-(1,3-benzoxazol-2-yl)-4-methylpiperidin-1-yl]-6-fluoro-1-methyl-2-oxo-1,2-dihydroquinoline-3-carboxamide], the IC50 turned out to be 0.5 nM.
Next, `Cn1c(=O)c(C(N)=O)c(N2CCC(c3nnc(-c4cccc(C(F)(F)F)c4)o3)CC2)c2cc(Br)ccc21` [Example 519]: 20 nM.
In the case of `COc1ccc2c(c1)c(N1CCC(c3nnc(-c4ccccc4)o3)CC1)c(C#N)c(=O)n2C` [Example 439, 6-methoxy-1-methyl-2-oxo-4-[4-(5-phenyl-1,3,4-oxadiazol-2-yl)piperidin-1-yl]-1,2-dihydroquinoline-3-carbonitrile] it was 492 nM.
In the case of `Cc1ccc2oc(C3CCN(c4c(C(N)=O)c(=O)n(C)c5cc(N(C)CCO)ccc45)CC3)nc2c1` [Example 495, 7-[(2-hydroxyethyl)(methyl)amino]-1-methyl-4-[4-(5-methyl-1,3-benzoxazol-2-yl)piperidin-1-yl]-2-oxo-1,2-dihydroquinoline-3-carboxamide] it was 1.4 nM.
Consider `Cc1ccc2nc(C3(C)CCN(c4c(C(N)=O)c(=O)n(C)c5ccc(C)cc45)CC3)oc2c1` [Example 197, 1,6-dimethyl-4-[4-methyl-4-(6-methyl-1,3-benzoxazol-2-yl)piperidin-1-yl]-2-oxo-1,2-dihydroquinoline-3-carboxamide], for which the IC50 is 2.2 nM.
Regarding `Cc1ccc2oc(C3CCN(c4c(C#N)c(=O)n(C)c5cc([N+](=O)[O-])c(C)cc45)CC3)nc2c1` [Example 421, 1,6-dimethyl-4-[4-(5-methyl-1,3-benzoxazol-2-yl)piperidin-1-yl]-7-nitro-2-oxo-1,2-dihydroquinoline-3-carbonitrile], the IC50 was determined as 137 nM.
On to `Cc1ccc2oc(C3CCN(c4c(C#N)c(=O)n(C)c5cc(OCC6CO6)ccc45)CC3)nc2c1` (stereo not shown) [Example 384, 1-methyl-4-[4-(5-methyl-1,3-benzoxazol-2-yl)piperidin-1-yl]-7-{[oxiran-2-yl]methoxy}-2-oxo-1,2-dihydroquinoline-3-carbonitrile], for which the IC50 stood at 1.8 nM.
On to `Cc1cc(F)cc(C2CCN(c3c(C#N)c(=O)n(C)c4ccccc34)CC2)c1` [Example 51, 4-[4-(3-fluoro-5-methylphenyl)piperidin-1-yl]-1-methyl-2-oxo-1,2-dihydroquinoline-3-carbonitrile], for which the IC50 stood at 8.3 nM.
In the case of `Cc1cccc(-c2nnc(C3CCN(c4c(C(N)=O)c(=O)n(C)c5ccccc45)CC3)o2)c1` [Example 463, 1-methyl-4-{4-[5-(3-methylphenyl)-1,3,4-oxadiazol-2-yl]piperidin-1-yl}-2-oxo-1,2-dihydroquinoline-3-carboxamide] it was 113 nM; in that of `Cc1ccc2oc(C3(C)CCN(c4c(C#N)c(=O)n(C)c5cc(C6CC(F)(F)C6)ccc45)CC3)nc2c1` [Example 252, 7-(3,3-difluorocyclobutyl)-1-methyl-4-[4-methyl-4-(5-methyl-1,3-benzoxazol-2-yl)piperidin-1-yl]-2-oxo-1,2-dihydroquinoline-3-carbonitrile], 13 nM.
Regarding `Cc1ccc2oc(C3(C)CCN(c4c(C(N)=O)c(=O)n(C)c5cc(C)ccc45)CC3)nc2c1` [Example 312, 1,7-dimethyl-4-[4-methyl-4-(5-methyl-1,3-benzoxazol-2-yl)piperidin-1-yl]-2-oxo-1,2-dihydroquinoline-3-carboxamide], the half-maximal inhibitory concentration (IC50) came out at 0.7 nM.
In the case of `Cc1ccc2oc(C3(C)CCN(c4c(C#N)c(=O)n(C)c5ccc(N6C[C@H](O)CC6=O)cc45)CC3)nc2c1` [Example 277, 6-[(4R)-4-hydroxy-2-oxopyrrolidin-1-yl]-1-methyl-4-[4-methyl-4-(5-methyl-1,3-benzoxazol-2-yl)piperidin-1-yl]-2-oxo-1,2-dihydroquinoline-3-carbonitrile], the IC50 came to 243 nM.
Next, `Cc1nc2ccc(C3CCN(c4c(C#N)c(=O)n(C)c5ccccc45)CC3)cc2s1` [Example 377, 1-methyl-4-[4-(2-methyl-1,3-benzothiazol-6-yl)piperidin-1-yl]-2-oxo-1,2-dihydroquinoline-3-carbonitrile]: 4.8 nM; `Cn1c(=O)c(C#N)c(N2CCC(c3nc4ccc(Cl)cc4o3)CC2)c2ccc(Br)cc21` [Example 32, 7-bromo-4-[4-(6-chloro-1,3-benzoxazol-2-yl)piperidin-1-yl]-1-methyl-2-oxo-1,2-dihydroquinoline-3-carbonitrile]: 6 nM.
Turning to `Cc1ccc2oc(C3(C)CCN(c4c(C#N)c(=O)n(C)c5ccc(O)cc45)CC3)nc2c1` [Example 242, 6-hydroxy-1-methyl-4-[4-methyl-4-(5-methyl-1,3-benzoxazol-2-yl)piperidin-1-yl]-2-oxo-1,2-dihydroquinoline-3-carbonitrile], the IC50 was found to be 2.7 nM.
In the case of `Cc1ccc2oc(C3CCN(c4c(C(N)=O)c(=O)n(C)c5cc(F)ccc45)CC3)nc2c1` [Example 304, 7-fluoro-1-methyl-4-[4-(5-methyl-1,3-benzoxazol-2-yl)piperidin-1-yl]-2-oxo-1,2-dihydroquinoline-3-carboxamide] it was 2.1 nM; in that of `COc1ccc(C2CCN(c3c(C#N)c(=O)n(C)c4cc(Br)ccc34)CC2)cc1` [Example 89, 7-bromo-4-[4-(4-methoxyphenyl)piperidin-1-yl]-1-methyl-2-oxo-1,2-dihydroquinoline-3-carbonitrile], 2.1 nM; in that of `COc1ccc2c(N3CCC(c4nc5cc(Cl)ccc5o4)CC3)c(C#N)c(=O)n(C)c2c1` [Example 259, 4-[4-(5-chloro-1,3-benzoxazol-2-yl)piperidin-1-yl]-7-methoxy-1-methyl-2-oxo-1,2-dihydroquinoline-3-carbonitrile], 29 nM.
For the compound `Cn1c(=O)c(C#N)c(N2CCC(c3nc4ccccc4o3)CC2)c2cccc(Br)c21` [Example 161, 4-[4-(1,3-benzoxazol-2-yl)piperidin-1-yl]-8-bromo-1-methyl-2-oxo-1,2-dihydroquinoline-3-carbonitrile], the IC50 turned out to be 1100 nM.
In the case of `Cc1ccc2oc(C3(C)CCN(c4c(C#N)c(=O)n(C)c5cc(CC6COC6)ccc45)CC3)nc2c1` [Example 285, 1-methyl-4-[4-methyl-4-(5-methyl-1,3-benzoxazol-2-yl)piperidin-1-yl]-7-[(oxetan-3-yl)methyl]-2-oxo-1,2-dihydroquinoline-3-carbonitrile] it was 10 nM.
On to `Cc1ccc2oc(C3CCN(c4c(C(N)=O)c(=O)n(C)c5ccc(C)cc45)CC3)nc2c1` [Example 194, 1,6-dimethyl-4-[4-(5-methyl-1,3-benzoxazol-2-yl)piperidin-1-yl]-2-oxo-1,2-dihydroquinoline-3-carboxamide], for which the IC50 came out at 2.2 nM.
In the case of `Cc1ccc2oc(C3CCN(c4c(C#N)c(=O)n(C)c5cc(C(F)(F)F)ccc45)CC3)nc2c1` [Example 289, 1-methyl-4-[4-(5-methyl-1,3-benzoxazol-2-yl)piperidin-1-yl]-2-oxo-7-(trifluoromethyl)-1,2-dihydroquinoline-3-carbonitrile] it was 8.3 nM; in that of `Cc1ccc2oc(C3CCN(c4c(C(N)=O)c(=O)n(C)c5ccccc45)CC3)nc2c1` [Example 107, 1-methyl-4-[4-(5-methyl-1,3-benzoxazol-2-yl)piperidin-1-yl]-2-oxo-1,2-dihydroquinoline-3-carboxamide], 2.3 nM.
